Legend:
[1] = Single-strand gel shift (SSGS) assay; format: binding; settings: oligos (2 μM) incubated with IAA (10 μM), 15% PAGE
Protocol: Single-strand gel shift (SSGS) assay. To identify the metabolite binding site of S100A8, we synthesized a series of oligonucleotides (oligos) (Eurofins Genomics LLC, KY) specific to the response putative IAA binding site at the promoter region of S100A8. The oligos ([…]) were incubated with […] of IAA at 37° C. for 30 minutes following electrophoresis on a 15% native PAGE without SDS in 0.5×TBE buffer. The oligos were stained with ethidium bromide ([…]) and visualized under ultraviolet (UV) light.
Given induction of bacterial metabolite IAA causes the degeneration of microglia by elevation of S100A8 at both the transcription and protein level, we hypothesized that IAA might directly target the promoter of S100A8 and regulate the expression of S100A8. Studying the interaction of metabolites, particularly small molecules, with nucleic acid is challenging due to a lack of appropriate tags for the metabolites. Because of this challenge, we developed a strategy raising the possibility to investigate the interaction of small molecules and nucleic acid.
To test our hypothesis, we first synthesized short single-DNA strains (around 60 mer length each) whose sequences spanned the promoter of S100A8 (FIG. 13A and Table 5). The site and sequence of the promoter and transcription start site (TSS) were determined according to the entire mRNA (Accession #NC_000069.7 (90,576,378 . . . 90,577,341)) and genomic sequence (Accession #L76381) from the NCBI nucleic acid database (FIG. 13A). These DNA oligos (2 μM) were incubated with IAA (10 μM) following native PAGE analysis (FIG. 4A). […] To define the accurate binding site of IAA, we synthesized 10 mer length DNA oligos covering the sequence of S100p1 (Table 5). Unfortunately, the 10 mer length oligo lost the conformational mobility shift in PAGE (FIG. 13C). We then tested the mobility shift with 20 mer oligos. […]

[2] = Histological analysis (H&E) of brain; format: in vivo, mouse; settings: IAA to young mice, phage to aged mice; especially cerebrum and cerebellum
Protocol: Histological analysis. For hematoxylin and eosin (H&E) staining, tissues were fixed with buffered 10% formalin solution (SF93-20; Fisher Scientific, Fair Lawn, NJ) overnight at 4° C. Dehydration was achieved by immersion in a graded ethanol series of 70%, 80%, 95%, and 100% ethanol for 40 minutes each. Tissues were embedded in paraffin and subsequently cut into ultra-thin slices (5 μm) using a microtome. Tissues were deparaffinized by xylene (Fisher) and rehydrated by decreasing concentrations of ethanol and PBS. Tissue sections were stained with H&E and slides were scanned with an Aperio ScanScope. For frozen sections, tissues were fixed with periodate-lysine-paraformaldehyde (PLP) and dehydrated with 30% sucrose in PBS at 4° C. overnight. The sections were incubated overnight at 4° C. with anti-Iba1 (FujiFilm, #019-19741) and anti-CD-11b (Biolegend, #101204) diluted 1:100. The signal was visualized with the secondary antibodies conjugated to Fluors Alex-488 or Alex-594 (Invitrogen) and nuclei were stained with 4′,6-Diamidino-2-phenylindole dihydrochloride (DAPI). The slides were scanned using an Aperio ScanScope or visualized using confocal laser scanning microscopy (Nikon, Melville, NY).

[3] = tested on: IAA binding oligo of the S100A8 promoter (hairpin); assay: Nucleic acid unwinding assay (helicase); format: biochemical
Protocol: Nucleic acid unwinding assay. Helicase reactions were carried out in triplicate in 96-well plates. To prepare DNA substrate, 20 μM single strand DNA (WT: 5′-Cy3-[…]-BHQ1-3′ (SEQ ID NO: 5); Mutant: 5′-Cy3-[…]-BHQ1-3′ (SEQ ID NO: 6; Eurofins Genomics LLC, KY) were denatured at 95° C. for 5 minutes in the reaction buffer (25 mM Tris HCl pH 7.5, 100 mM NaCl, 15 mM MgCl2, 1 mM DTT, 0.1 mg/ml BSA) and cooled slowly to room temperature before add IAA (100 nM) and/or helicase ([…]). After ATP (2 mM) was added to initiate the helicase activity, the fluorescence value was recorded using a microplate reader with an excitation wavelength of 550 and an emission wavelength of 570. BHQ: black-hole quencher.

[4] = Electroencephalography (EEG) recording in mice; format: in vivo, mouse
Protocol: Electroencephalography (EEG) recording in mice. Groups of mice were anesthetized by peritoneal administration of ketamine (90 mg/kg) and xylazine (10 mg/kg) mixture. Mice that were not responsive to nociceptive stimuli were consider anesthetized and were administered the analgesic buprenorphine (0.1 mg/kg). The fur of the skull area was removed, placed on surgical bench and skin area were cleaned with betadine and 70% ethyl alcohol. The midline scalp skin was lifted using forceps and an incision made from the frontal cranial bone to the back of the parietal cranial bones. The skin was push aside and cleaned with betadine using cotton swabs. The skull was cleaned and marked for placement of electrodes. Two craniotomies 0.25-0.5 mm in diameter on the side of each hemisphere were established a 3 mm distance from the midline vertical fissure in the frontal and occipital regions; a hand-held drill (Kopf) with matching drill bits (0.5 mm) was used for the craniotomies. Four electrodes were placed in appropriate skull holes over the frontal cortex (FC) and occipital cortex (OC). A ground/reference electrode was also implanted in the most anterior region of cerebellum. Thus, two independent EEG channels were created for FC and OC on each side of the hemisphere. […]

Compound	mobility shift on native PAGE after incubation with IAA [1]	neuronal loss and dying neurons in the brain (histology) [2]	activity of helicase unwinding of the self-complementary binding sequence ([3]; WT Cy3/BHQ1 oligo, with helicase)	unwinding of mutant sequence ([3]; mutant Cy3/BHQ1 oligo)	EEG rhythms coherence ([4]; IAA mice vs control, phage to aged mice)	distributions of DSA (bilateral symmetry) ([4]; IAA-treated young mice, phage-treated aged mice)
S100p1-G: CTGTGGGCAG CTGGCCAAGC (SEQ ID NO: 8), S100A8 promoter −57 . . . −38 (DNA CTGTGGGCAGCTGGCCAAGC; chemistry not given here)	displayed a shift	–	–	–	–	–
CC(C)CCN [IAA, isoamylamine]	–	significantly promoted	enhanced	attenuated	incoherence	asymmetric bilaterally

— US20250136997A1, “COMPOSITIONS FOR SEQUESTERING ISOAMYL AMINE AND METHODS OF USE THEREFOR” (University of Louisville Research Foundation, Inc., priority 2023, published 2025)
